Results published in patent US7592421B1, “HLA class II peptide mimics” (Health Research, Inc., priority 2003, dated 2009).
“Also recorded” adds a separate entry of the source.

What was measured:
[1] = tested on: mAb TP117.6 binding to HLA class II antigens on LG2 cells; experiment: Inhibition of binding of mAb TP117.6 to HLA class II bearing LG2 cells; parameters: species or system human; conditions: FIG. 1D
Description: (§1) Peptide mimics of HLA class II antigen can be isolated by panning phage display peptide libraries with anti-HLA class II antigen mAbs. Anti-HLA class II antigen mAbs can be used to isolate phage that display antibody reactive peptides. After phage panning, the binding ability of isolated phage colonies to anti-HLA class II antigen mAbs is tested with immunoscreening and further confirmed by enzyme-linked immunosorbent assay (ELISA). Anti-HLA class II antigen antibody reactive phage clone and the same phage without displaying peptides, can be utilized as a positive and a negative controls respectively in the immunoscreening and ELISA. In the positive phage clones, the DNA inserts that encode the antibody reactive peptides can be sequenced. Peptides can be synthesized based on the sequences of the DNA inserts. The synthesized peptides are tested in ELISA to determine their binding reactivity with corresponding anti-HLA class II antigen mAbs. The ability of synthetic peptides to inhibit the binding of anti-HLA class II antigen mAbs to HLA class II antigen can be tested in an inhibition assay with HLA class II antigen-positive cell lines. The synthetic peptides that inhibit or block the binding of anti-HLA class II antigen mAbs to HLA class II antigen can be tested as active immunotherapy candidates. […]

[2] = tested on: HLA class II antigens; experiment: Immunization of HLA-DR transgenic mice, breaking of self-tolerance; format: in vivo; conditions: peptide conjugated to KLH with Freund's adjuvant, sera day 70, FIG. 3
Text: (§2) HLA-DR transgenic mice express HLA-DR molecules. The promoter that is used to drive DR expression in the transgenic mice is H2 Ea promoter (pDOI-5 expression vector). This vector directs the expression of cDNA to cells which normally display class II molecules. HLA-DR transgenic mice were utilized as a model to test whether HLA class II peptide mimics can break tolerance to self-antigen. HLA-DR transgenic mice were immunized with peptide JH1 and JHT1 conjugated to keyhole limpet hemocyanin (KLH) and mixed with complete Freund's adjuvant for priming and with incomplete Freund's adjuvant for boosting. […] These experiments utilized LG2 cells as described in Example 2 and MOLT-4 cells. […] It was used as a control. Sera used for testing reactivity with HLA class II antigens was harvested on day 35 from BABL/c mice for FIGS. 2 and 4 and on day 70 from HLA-DR transgenic mice in FIG. 3. For FIGS. 2, 3 and 4, preimmune serum was harvested one week before the first immunization and was used as a control. […] One intradermal injection with HLA class II bearing LG2 cells enhanced the immune response to HLA class II antigens.

[3] = tested on: mAb H2-27.F5.2G4 binding to HLA class II antigen on LG2 cells; experiment: Inhibition of binding of mAb H2-27.F5.2G4 to HLA class II bearing LG2 cells; parameters: species or system human; conditions: FIG. 1B; negative control peptide 673.74
Description: as §1

[4] = tested on: HLA class II antigens of LG2 lymphoid cells; experiment: Flow cytometry of immune sera with LG2 lymphoid cells; format: cell-based, human; conditions: sera of immunized BALB/c mice, day 35; FIG. 4A
Text: as §2

[5] = tested on: MOLT-4 lymphoid cells; experiment: Flow cytometry of immune sera with control MOLT-4 lymphoid cells; format: cell-based, human; conditions: sera of immunized BALB/c mice, day 35; MOLT-4 does not express HLA class II; FIG. 4B
Text: as §2

[6] = tested on: anti-HLA class II mAb H2-27.F5.2G4; experiment: ELISA binding of synthetic peptide to mAb H2-27.F5.2G4; conditions: ELISA and inhibition assay
Description: as §1

[7] = tested on: immunizing peptides; HLA class II; experiment: Antibody titers in sera of immunized mice; format: in vivo; conditions: peptide-KLH, Freund's adjuvant; FIGS. 2-4
Text: as §2

[8] = tested on: mAb TP25.99, which recognizes HLA class I antigens; experiment: Inhibition of binding of control mAb TP25.99 (specificity control); conditions: FIG. 1E
Description: This Example illustrates the ability of the peptide mimics to bind to anti-HLA class II mAbs. The synthetic peptides were tested by ELISA for their ability to bind to anti-HLA class II mAb H2-27.F5.2G4, HT214.F2.H6.4F4, LGII612.14 and TP117.6. JH1 and JHT1 were also tested for their ability to inhibit the binding of anti-HLA class II mAb H2-27.F5.2G4 (FIG. 1B), HT214.F2.H6.4F4 (FIG. 1A), LGII612.14 (FIG. 1C) and TP117.6 (FIG. 1D) to HLA class II bearing cells LGL2 cells. H2-27.F5.2G4, LGII-612.14 and HT214.F2.H6.4F4 are monoclonal antibodies (mAb) that recognize HLA class II antigens. TP25.99 is a monoclonal antibody (mAb) which recognizes HLA class I antigens and is used in FIG. 1E as a control. LG2 is a human lymphoid cell line which expresses HLA class II antigens on its cell surface. P763.74 is a High Molecular Weight-Melanoma Associated Antigen (HMW-MAA) peptide mimic isolated using the anti-HMW-MAA mAb 763.74 and is used in FIGS. 1A-1C as a control peptide. The peptides were considered to be mimics of HLA class II antigens if they could inhibit the binding of any of the four anti-HLA class II mAb (H2-27, F5.2G4, HT214.F2.H6.4F4, LGII612.14 and TP117.6) to HLA class II bearing cells.

[9] = tested on: mAb LGII-612.14 binding to HLA class II antigens on LG2 cells; experiment: Inhibition of binding of mAb LGII-612.14 to HLA class II bearing LG2 cells; parameters: species or system human; conditions: FIG. 1C; negative control peptide 673.74
Description: as §1

[10] = tested on: anti-HLA class II mAb LGII-612.14; experiment: ELISA binding of synthetic peptide to mAb LGII-612.14; conditions: ELISA and inhibition assay
Description: as §1

[11] = tested on: HLA class II antigens; experiment: Immunization of BALB/c mice, serum reactivity with HLA class II antigens; format: in vivo; conditions: peptide conjugated to KLH with Freund's adjuvant, sera day 35, FIG. 2
Text: as §2

[12] = Side effects in immunized mice; format: in vivo; conditions: peptide-KLH, Freund's adjuvant
Text: as §2

[13] = tested on: mAb HT214.F2.H6.4F4 binding to HLA class II antigens on LG2 cells; experiment: Inhibition of binding of mAb HT214.F2.H6.4F4 to HLA class II bearing LG2 cells; parameters: species or system human; conditions: FIG. 1A; negative control peptide 673.74
Description: as §1

[14] = tested on: anti-HLA class II mAb HT214.F2.H6.4F4; experiment: ELISA binding of synthetic peptide to mAb HT214.F2.H6.4F4; conditions: ELISA and inhibition assay
Description: as §1

Sequence	inhibition of binding of mAb TP117.6 to HLA class II antigens on LG2 cells [1]	breaking self-tolerance, humoral immune response against HLA class II antigens [2]	inhibition of binding of mAb H2-27.F5.2G4 to HLA class II antigen on LG2 cells [3]	reactivity of immune sera with HLA class II antigens of LG2 lymphoid cells (flow cytometry) [4]	reactivity of immune sera with control MOLT-4 lymphoid cells (flow cytometry) [5]	reaction with the combining site of mAb H2-27.F5.2G4 [6]	anti-HLA class II antibodies in sera of immunized mice [7]	antibodies to the immunizing peptides in sera of immunized mice [7]	inhibition of binding of mAb TP25.99 (anti-HLA class I, control) [8]	inhibition of binding of mAb LGII-612.14 to HLA class II antigens on LG2 cells [9]	reaction with the combining site of mAb LGII-612.14 [10]	humoral immune response against HLA class II antigens [11]	side effects in immunized mice [12]	inhibition of binding of mAb HT214.F2.H6.4F4 to HLA class II antigens on LG2 cells [13]	reaction with the combining site of mAb HT214.F2.H6.4F4 [14]
SCLRAGGWVCCK (unknown synthesized peptide JH1) [HLA class II peptide mimic isolated by panning phage display libraries with mAb H2-27.F5.2G4 and LGII-612.14]	can inhibit binding	can break self-tolerance and elicit a humoral immune response against HLA class II antigens	inhibits binding of mAb H2-27.F5.2G4 to HLA class II antigen on LG2 cells in a dose-dependant manner	reactivity	lack of reactivity	reacted with the combining sites	detected in the sera of immunized mice at lower titers	high-titer antibodies to the immunizing peptides were detected	do not inhibit binding	inhibits binding of mAb LGII-612.14 to HLA class II antigens on LG2 cells in a dose-dependent manner	reacted with the combining sites	elicits a humoral immune response against HLA class II antigens; also recorded: induced a humoral response against HLA class II antigens	No obvious side effects	–	–
KCPLDPKGLNCV (unknown synthesized peptide JHT1) [HLA class II peptide mimic isolated by panning with mAb HT214.F2.H6.4F4]	can inhibit binding	can break self-tolerance and elicit a humoral immune response against HLA class II antigens; also recorded: can also break self-tolerance	–	reactivity	lack of reactivity	–	detected in the sera of immunized mice at lower titers	high-titer antibodies to the immunizing peptides were detected	do not inhibit binding	–	–	elicits a humoral immune response against HLA class II antigens; also recorded: also induced a humoral response against HLA class II antigens	No obvious side effects	inhibits binding of mAb HT214.F2.H6.4F4 to HLA class II antigens to LG2 cells in a dose-dependent manner	reacted with the combining sites
